# From publication PMC6696415, “Supersaturation Potential of Amorphous Active Pharmaceutical Ingredients after Long-Term Storage” (Molecules, 2019)
# Key:
# [1] = Physical stability study of spray-dried amorphous APIs stored at 75% RH, 25 °C (solid state by Raman, MDSC, PXRD); format: physicochemical; details: for Estimated Amorphous Content at Day 168 / Crystal Growth / Crystallization Initiation Propensity / Time to Complete Crystallization / Time to Start Crystallization: 75% RH at 25 °C; for Estimated Amorphous Content at Day 168: semi-quantitative Raman analysis; for Stability for 168 Days at 75% RH / Crystal Growth / Crystallization Initiation Propensity / Time to Complete Crystallization / Time to Start Crystallization: spray-dried amorphous API; for Stability for 168 Days at 75% RH: 25 °C; for Time to Complete Crystallization / Time to Start Crystallization: up to 168 days
# Protocol: The amorphous solids were prepared by spray-drying. In short, solutions containing the APIs of interest were prepared by dissolving the crystalline powder in either ethanol, acetone, or a mixture of 90:10 (% w/w) ethanol/acetone prior to spray-drying. Any unwanted debris and particulate contaminants were removed by filtration (0.45 µm pore size). Thereafter, the solutions were spray-dried using a Büchi B-290-Mini Spray Dryer with an inert loop (Büchi Laboratoriums, Flawil, Switzerland) according to the processing parameters previously described by Edueng et al.. After spray-drying, the collected solids were divided and kept in two different wide-mouth aluminum containers. These open containers were placed in a vacuumed desiccator overnight to remove any residual solvent. The vacuum-dried solids were subsequently characterized with different solid-state analytical methods, studied for their supersaturation behavior, and stored in the stability chamber for 168 days (6 months). Following the overnight vacuum-drying, the spray-dried materials were placed in a stability chamber with a 75% relative humidity level and constant temperature of 25 °C. The samples were stored in open wide-mouth aluminum containers. Samples were withdrawn from the stability chamber at 1, 2, 7, 14, 28, 84, and 168 day(s) for the solid-state analyses. These analyses monitored the physical stability of the amorphous API, and the supersaturation study investigated the impact of solid-state changes on the supersaturation potential and crystallization kinetics. The preparation of these materials and the physical stability protocol are described in detail in Edueng et al..
# A Twin-Twin (Bruker, Coventry, UK) measuring in Bragg–Brentano geometry and equipped with a sample rotator was used to collect the X-ray diffractograms of the unprocessed crystalline and freshly spray-dried APIs. The solid samples were gently ground with a mortar and pestle when the powder was too coarse. Thereafter, they were placed on silicon sample holders which rotated at 40 rpm during the measurement. The X-ray source was a rotating copper anode with an accelerating voltage of 40 kV and current of 40 mA. The emitted Cu Kα radiation (λ = 1.54 Å) was used in the measurements. A diffraction pattern in the 2Ө range between 5° and 40° was collected at a scanning step of 0.01° and 0.3 s exposure time at each step. Primary and secondary divergence slits of 0.40 and 2.48 mm, respectively, were used. Since this technique provides a more direct interpretation regarding the amorphous and/or crystalline content of samples, it was used to ensure that the spray-dried APIs were fully amorphous prior to the initiation of other analyses. Based on this information, the reference Raman spectra for the fully amorphous and fully crystalline samples of each compound could be established.
# Modulated differential scanning calorimetry (MDSC) was performed to identify and monitor the solid-state form changes of the solids (amorphous, crystalline, or a mixture of both) and to determine the temperatures of glass transition (Tg), crystallization (Tc), and melting (Tm). Approximately 1–5 mg of sample was weighed and transferred into standard aluminum pans. The lids were pin-holed to allow evaporation of any solvent or moisture. Depending on the Tg, the samples were equilibrated at either −70 °C or 0 °C to allow for at least a 20 °C baseline prior to the Tg measurement, followed by heating up to 20–30 °C above the Tm at 3 °C/min and a temperature modulation of ±1 °C every 60 s. Analyses and integrations of the thermograms were performed using TA Instruments Universal Analysis 2000 for Windows (Version 4.5A, Sollentuna, Sweden) software.
# In addition to MDSC, the samples were examined by Raman spectroscopy using a Rxn-2 Hybrid Raman Spectrometer (Kaiser Optical System Inc., Ann Arbor, MI, USA). […]
# [2] = In vitro supersaturation under non-sink conditions (µDISS Profiler, tenfold supersaturation ratio, spray-dried solids); format: physicochemical; details: for RAUC (AUC ratio spray-dried/crystalline) / RCmax,app (Cmax,app ratio spray-dried/crystalline): tenfold supersaturation ratio, phosphate buffer pH 6.5, 37 °C, 60 min; for Ratio AUC (RAUC) / Ratio Cmax (RCmax,app): pH 6.5, 37 °C
# Protocol: The protocol is described in Edueng et al.. In short, the experiment was initiated by constructing a standard curve (R^2 ≥ 0.97) covering the possible concentrations attained from the supersaturation. […] For this purpose, a small-scale dissolution apparatus, the µDISS Profiler (pION Inc., Billerica, MA, USA), was used. The temperature and stirring rate were maintained at 37 °C and 100 rpm, respectively, and the supersaturation behavior was monitored for 60 min. The experiments were conducted in triplicate for each sample type.
# The effects of physical aging and/or crystallization upon storage on the performance at tenfold supersaturation were assessed on the basis of the following parameters: (i) the apparent maximum concentration achieved (Cmax,app); (ii) the area under the curve (AUC); and (iii) the crystallization rate constant (k) (see Figure 9). Cmax,app refers to the maximum supersaturation concentration attained by dissolving amorphous solid in the medium before a decline in concentration was observed. […] The crystallization rate constant (k) defines the rate at which a decrease in concentration was observed. It gives an indication of the crystallization rate upon dissolution and is expressed as the reciprocal of the x-axis time units.
# These three parameters were determined using GraphPad Prism version 8.1.0 for Windows (GraphPad Software, San Diego, CA, USA). Cmax,app was obtained by determining descriptive statistics of the tabulated dissolution data. It corresponds to the maximum value or highest point in the dissolution data (referred to as “maximum” in the Graphpad software). The AUC was computed based on the trapezoidal rule. The Cmax,app and AUC of the fresh and the aged/crystallized spray-dried samples were divided by the Cmax,app and AUC of the crystalline samples to obtain the ratios of both parameters (see Equations (1) and (2)). The ratios were then referred to as RCmax,app and RAUC, respectively. The crystallization was approximated following first-order kinetics, leading to Equation (3). The k value was determined by performing a nonlinear curve fitting of Equation (3) from the time point of Cmax,app of the supersaturation profiles of the samples using the same software. (1) RCmax,app=Cmax,SD/Cmax,cryst (2) RAUC=AUCSD/AUCcryst (3) C(t)=(C0−C∞)·e^−k·t+C∞
# In Equation (3), C0 is the fitted concentration at t = 0, C∞ is the estimated concentration at infinite time, and k is the rate constant. In our study, the concentration is expressed in µg/mL while k is expressed in min^−1.
# [3] = aged and/or crystallized spray-dried (SD Tn, stored at 75% RH)
# [4] = spray-dried samples (fresh and aged), as summarised in text from Figures 2 and 3
# [5] = 2-day sample (SD T2D; 23% crystalline) stored at 75% RH
# [6] = 2-day-old sample containing 23% crystallinity
# [7] = 7-day sample (SD T7D; completely crystalline) stored at 75% RH
Estimated Amorphous Content at Day 168 [1] [%],Stability for 168 Days at 75% RH [1],Crystal Growth [1],Crystallization Initiation Propensity [1],Time to Complete Crystallization [1] [days],Time to Start Crystallization [1] [days],"RAUC (AUC ratio spray-dried/crystalline) [2, 3]","RCmax,app (Cmax,app ratio spray-dried/crystalline) [2, 3]",RAUC (AUC ratio spray-dried/crystalline) ([2]; freshly spray-dried (SD T0)),"RCmax,app (Cmax,app ratio spray-dried/crystalline) ([2]; freshly spray-dried (SD T0))",SMILES,further results
94,Moderate,Slow,High,>168,1,4.4,7.6,4.1,7.2,"COc1ccc(Cl)cc1C(=O)NCCc1ccc(S(=O)(=O)NC(=O)NC2CCCCC2)cc1 [Glibenclamide, glibenclamide]","Estimated Amorphous Content at Day 168 ([1]; listed as glibenclamide): approximately 94%; Estimated crystalline content ([1]; after 168 days at 75% RH): 6%; RAUC, times higher than the crystalline counterparts [2, 4]: ~4 times; RCmax,app, times higher than the crystalline counterparts [2, 4]: approximately 7 times"
0,Low,Rapid,High,1,1,–,–,–,–,"NS(=O)(=O)c1cc2c(cc1Cl)NCNS2(=O)=O [Hydrochlorothiazide, hydrochlorothiazide]",–
~89,Moderate,Slow,High,–,1,–,–,–,–,"C[C@]12CCC(=O)C=C1CC[C@@H]1[C@@H]2[C@@H](O)C[C@@]2(C)[C@H]1CC[C@]2(O)C(=O)CO [Hydrocortisone, hydrocortisone]",Estimated crystalline content ([1]; after 168 days at 75% RH): 11%
100,High,–,Low,>168,>168,2.1,2.5,1.9,2.3,"CC1Cc2ccccc2N1NC(=O)c1ccc(Cl)c(S(N)(=O)=O)c1 (centres unmarked) [Indapamide, indapamide]",Time to Start Crystallization ([1]; listed as indapamide): ≥ 168 days
100,High,–,Low,>168,>168,1.8,2.8,1.5,2.8,"Cc1ccccc1N1C(=O)c2cc(S(N)(=O)=O)c(Cl)cc2NC1C (centres unmarked) [Metolazone, metolazone]",Time to Start Crystallization ([1]; listed as metolazone): ≥ 168 days
0,Low,Rapid,High,1,1,1.5,1.5,1.5,1.6,"Nc1ccc(S(=O)(=O)Nc2nccs2)cc1 [Sulfathiazole, sulfathiazole]",–

SMILES,Estimated Amorphous Content at Day 168 [1] [%],Stability for 168 Days at 75% RH [1],Crystal Growth [1],Crystallization Initiation Propensity [1],Time to Complete Crystallization [1] [days],Time to Start Crystallization [1] [days],"RAUC (AUC ratio spray-dried/crystalline) [2, 3]","RCmax,app (Cmax,app ratio spray-dried/crystalline) [2, 3]",RAUC (AUC ratio spray-dried/crystalline) ([2]; freshly spray-dried (SD T0)),"RCmax,app (Cmax,app ratio spray-dried/crystalline) ([2]; freshly spray-dried (SD T0))",further results
"CC(=O)N1CCN(c2ccc(OCC3COC(Cn4ccnc4)(c4ccc(Cl)cc4Cl)O3)cc2)CC1 (centres unmarked) [Ketoconazole, ketoconazole]",0,Low,Rapid,High,7,1,0.8,1.1,1.6,2.0,"Estimated crystalline content ([1]; 2-day sample (T2D) at 75% RH): 23%; Ratio AUC (RAUC) [2, 5]: 0.7; Ratio Cmax (RCmax,app) [2, 5]: 0.9; Decrease of AUC ratio versus fresh sample [2, 6]: 50%; Decrease of Cmax ratio (Cmax,app) versus fresh sample [2, 6]: 50%; Ratio AUC (RAUC) [2, 7]: 0.8; Ratio Cmax (RCmax,app) [2, 7]: 1.1; Decrease of RCmax,app versus fresh sample ([2]; completely crystallized spray-dried sample): 50%"
